Columns and labels:
galium = assay: Test D pre-/postemergence herbicide test; type: in vivo, Galium aparine; settings: for Plant response rating: Galium, scale 0 to 100; for Plant response rating, Galium: scale 0 to 100 (0 no effect, 100 complete control)
From the text: (§1) Seeds of plant species selected from bluegrass (annual bluegrass, Poa annua), blackgrass (Alopecurus myosuroides), canarygrass (littleseed canarygrass, Phalaris minor), chickweed (common chickweed, Stellaria media), galium (catchweed bedstraw, Galium aparine), bromegrass, downy (downy bromegrass, Bromus tectorum), field poppy (Papaver rhoeas), field violet (Viola arvensis), foxtail, green (green foxtail, Setaria viridis), deadnettle (henbit deadnettle, Lamium amplexicaule), ryegrass, Italian (Italian ryegrass, Lolium multiflorum), kochia (Kochia scoparia), lambsquarters (Chenopodium album), oilseed rape (Brassica napus), pigweed (Amaranthus retroflexus), chamomile (scentless chamomile, Matricaria inodora), Russian thistle (Salsola kali), speedwell (bird's-eye speedwell, Veronica persica), barley, spring (spring barley, Hordeum vulgare), wheat, spring (spring wheat, Triticum aestivum), buckwheat, wild (wild buckwheat, Polygonum convolvulus), mustard, wild (wild mustard, Sinapis arvensis), oat, wild (wild oat, Avena fatua), radish, wild (wild radish, Raphanus raphanistrum), […]), barley, winter (winter barley, Hordeum vulgare), and wheat, winter (winter wheat, Triticum aestivum) were planted into a silt loam soil and treated preemergence with test chemicals formulated in a non-phytotoxic solvent mixture which included a surfactant. At the same time, these species were planted in pots containing Redi-Earth® planting medium (Scotts Company, 14111 Scottslawn Road, Marysville, Ohio 43041) comprising spaghnum peat moss, vermiculite, wetting agent and starter nutrients and treated with postemergence applications of the test chemicals formulated in the same manner. Plants ranged in height from 2 to 18 cm (1- to 4-leaf stage). Treated plants and controls were maintained in a controlled growth environment for 7 to 21 days after which time all species were compared to controls and visually evaluated. Plant response ratings, summarized in Table D, are based on a scale of 0 to 100 where 0 is no effect and 100 is complete control. A dash (-) response means no test result.

foxtail, green = assay: Test D pre-/postemergence herbicide test; type: in vivo, Setaria viridis; settings: for Plant response rating: Foxtail, Green, scale 0 to 100; for Plant response rating, Foxtail, Green: scale 0 to 100 (0 no effect, 100 complete control)
From the text: as §1

bluegrass = assay: Test D pre-/postemergence herbicide test; type: in vivo, Poa annua; settings: for Plant response rating: Bluegrass, scale 0 to 100; for Plant response rating, Bluegrass: scale 0 to 100 (0 no effect, 100 complete control)
From the text: as §1

buckwheat, wild = assay: Test D pre-/postemergence herbicide test; type: in vivo, Polygonum convolvulus; settings: for Plant response rating: Buckwheat, Wild, scale 0 to 100; for Plant response rating, Buckwheat, Wild: scale 0 to 100 (0 no effect, 100 complete control)
From the text: as §1

foxtail, giant = assay: Test E preemergence herbicide test; type: in vivo, Setaria faberii; set-up: key: 0 = no effect, 100 = complete control
From the text: (§2) Seeds of plant species selected from corn (Zea mays), soybean (Glycine max), velvetleaf (Abutilon theophrasti), lambsquarters (Chenopodium album), wild poinsettia (Euphorbia heterophylla), pigweed, palmer (palmer pigweed, Amaranthus palmeri), waterhemp (common waterhemp, Amaranthus rudis), surinam grass (Brachiaria decumbens), crabgrass, large (large crabgrass, Digitaria sanguinalis), crabgrass, Brazil (Brazilian crabgrass, Digitaria horizontalis), panicum, fall (fall panicum, Panicum dichotomiflorum), foxtail, giant (giant foxtail, Setaria faberii), foxtail, green (green foxtail, Setaria viridis), goosegrass (Eleusine indica), johnsongrass (Sorghum halepense), ragweed (common ragweed, Ambrosia elatior), barnyardgrass (Echinochloa crus-galli), sandbur (southern sandbur, Cenchrus echinatus), arrowleaf […] rhombifolia), ryegrass, Italian (Italian ryegrass, Lolium multiflorum), dayflower, VA (Virginia dayflower, Commelina virginica), field bindweed (Convolvulus arvensis), morningglory (Ipomoea coccinea), nightshade (eastern black nightshade, Solanum ptycanthum), kochia (Kochia scoparia), nutsedge, yellow (yellow nutsedge, Cyperus esculentus), cocklebur (common cocklebur, Xanthium strumarium), smartweed (ladysthumb smartweed, Polygonum Persicaria) and beggarticks (hairy beggarticks, Bidens pilosa), were planted into a silt loam soil and treated preemergence with test chemicals formulated in a non-phytotoxic solvent mixture which included a surfactant. Treated plants and controls were maintained in a greenhouse for 21 days, after which time all species were compared to controls and visually evaluated. Plant response ratings, summarized in Table E, are based on a scale of 0 to 100 where 0 is no effect and 100 is complete control. A dash (-) response means no test result.

surinam grass = assay: Test E preemergence herbicide test; type: in vivo, Brachiaria decumbens; set-up: key: 0 = no effect, 100 = complete control
From the text: as §2

waterhemp = assay: Test E preemergence herbicide test; type: in vivo, Amaranthus rudis; set-up: key: 0 = no effect, 100 = complete control
From the text: as §2

Structure (SMILES)	Plant response rating (galium; Postemergence, 16 g ai/ha)	Plant response rating (galium; Postemergence, 31 g ai/ha)	Plant response rating (galium; Postemergence, 62 g ai/ha)	Plant response rating (galium; Postemergence, 125 g ai/ha)	Plant response rating (galium; Postemergence, 250 g ai/ha)	Plant response rating (foxtail, green; Postemergence, 16 g ai/ha)	Plant response rating (foxtail, green; Postemergence, 31 g ai/ha)	Plant response rating (foxtail, green; Postemergence, 62 g ai/ha)	Plant response rating (foxtail, green; Postemergence, 125 g ai/ha)	Plant response rating (foxtail, green; Postemergence, 250 g ai/ha)	Plant response rating (bluegrass; Postemergence, 16 g ai/ha)	Plant response rating (bluegrass; Postemergence, 31 g ai/ha)	Plant response rating (bluegrass; Postemergence, 62 g ai/ha)	Plant response rating (bluegrass; Postemergence, 125 g ai/ha)	Plant response rating (bluegrass; Postemergence, 250 g ai/ha)	Plant response rating (buckwheat, wild; Postemergence, 16 g ai/ha)	Plant response rating (buckwheat, wild; Postemergence, 31 g ai/ha)	Plant response rating (buckwheat, wild; Postemergence, 62 g ai/ha)	Plant response rating (buckwheat, wild; Postemergence, 125 g ai/ha)	Plant response rating (buckwheat, wild; Postemergence, 250 g ai/ha)	other results
O=C1NCC(c2ccc(F)c(F)c2)C1C(=O)Nc1cccc(F)c1 (racemic) [Compound 12]	0	0	15	20	25	0	0	10	20	25	0	0	0	10	10	0	0	10	10	10	Plant response rating, Galium (galium; Preemergence, 31 g ai/ha): 0; Plant response rating, Galium (galium; Preemergence, 62 g ai/ha): 0; Plant response rating, Galium (galium; Preemergence, 16 g ai/ha): 0; Plant response rating (galium; Preemergence, 125 g ai/ha): 0; Plant response rating (galium; Preemergence, 250 g ai/ha): 10; Plant response rating, Foxtail, Green (foxtail, green; Preemergence, 31 g ai/ha): 0; Plant response rating, Foxtail, Green (foxtail, green; Preemergence, 62 g ai/ha): 0; Plant response rating, Foxtail, Green (foxtail, green; Preemergence, 16 g ai/ha): 0; Plant response rating (foxtail, green; Preemergence, 125 g ai/ha): 0; Plant response rating (foxtail, green; Preemergence, 250 g ai/ha): 0; Plant response rating, Bluegrass (bluegrass; Preemergence, 31 g ai/ha): 0; Plant response rating, Bluegrass (bluegrass; Preemergence, 62 g ai/ha): 0; Plant response rating, Bluegrass (bluegrass; Preemergence, 16 g ai/ha): 0; Plant response rating (bluegrass; Preemergence, 125 g ai/ha): 20; Plant response rating (bluegrass; Preemergence, 250 g ai/ha): 40; Plant response rating, Buckwheat, Wild (buckwheat, wild; Preemergence, 31 g ai/ha): 0; Plant response rating, Buckwheat, Wild (buckwheat, wild; Preemergence, 62 g ai/ha): 0; Plant response rating, Buckwheat, Wild (buckwheat, wild; Preemergence, 16 g ai/ha): 0; Plant response rating (buckwheat, wild; Preemergence, 125 g ai/ha): 0; Plant response rating (buckwheat, wild; Preemergence, 250 g ai/ha): 100
O=C1NCC(c2ccc(C(F)(F)F)cc2)C1C(=O)Nc1ccc(F)c(F)c1F (stereo not drawn) [Compound 232]																					Plant response rating, Foxtail, Giant (foxtail, giant; 31 g ai/ha): 35; Plant response rating, Foxtail, Giant (foxtail, giant; 62 g ai/ha): 90; Plant response rating, Foxtail, Giant (foxtail, giant; 125 g ai/ha): 95; Plant response rating, Foxtail, Giant (foxtail, giant; 250 g ai/ha): 98; Plant response rating, Surinam Grass (surinam grass; 31 g ai/ha): 40; Plant response rating, Surinam Grass (surinam grass; 62 g ai/ha): 50; Plant response rating, Surinam Grass (surinam grass; 125 g ai/ha): 70; Plant response rating, Surinam Grass (surinam grass; 250 g ai/ha): 98; Plant response rating, Waterhemp (waterhemp; 31 g ai/ha): 35; Plant response rating, Waterhemp (waterhemp; 62 g ai/ha): 80; Plant response rating, Waterhemp (waterhemp; 125 g ai/ha): 85; Plant response rating, Waterhemp (waterhemp; 250 g ai/ha): 95
O=C1NCC(c2cc(F)c(F)c(F)c2)C1C(=O)Nc1ccccc1F (racemic) [Compound 34]	0	0	0	0	0	0	0	0	0	0	0	0	0	0	0	0	0	0	0	0	

From patent US10294202B2, “Pyrrolidinones as herbicides” (FMC Corporation, priority 2013, dated 2019)
